Assay results taken from ChEMBL document CHEMBL1201861, “Genomics of Drug Sensitity in Cancer screening data, Wellcome Trust Sanger Institute”.

Legend:
Test in all cases: cells
KU812 cell line = format: functional, cell-based; details: Homo sapiens;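 further: growth inhibition of KU812 cells, read out with a cell viability assay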
Description: SANGER: Inhibition of human KU812 cell growth in a cell viability assay.

SNB-75 = format: functional, cell-based, Homo sapiens; details: Homo sapiens, SNB-75;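 further: cell viability assay measuring growth inhibition of human SNB-75 cells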
Description: SANGER: Inhibition of human SNB75 cell growth in a cell viability assay.

BFTC-909 = format: functional, cell-based, Homo sapiens; details: Homo sapiens, BFTC-909
Description: SANGER: Inhibition of human BFTC-909 cell growth in a cell viability assay.

NCI-H1993 = format: functional, cell-based, Homo sapiens; details: Homo sapiens, NCI-H1993;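 further: growth inhibition of the cancer cell line, assessed with a cell viability assay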
Description: SANGER: Inhibition of human NCI-H1993 cell growth in a cell viability assay.

MHH-PREB-1 = format: functional, cell-based; details: Homo sapiens;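 further: cell viability assay measuring inhibition of proliferation of human MHH-PREB-1 cells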
Description: SANGER: Inhibition of human MHH-PREB-1 cell growth in a cell viability assay.

HCT-116 = format: functional, cell-based, Homo sapiens; details: Homo sapiens, HCT-116
Description: SANGER: Inhibition of human HCT-116 cell growth in a cell viability assay.

DSH1 = format: functional, cell-based, Homo sapiens; details: Homo sapiens, DSH1;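 further: growth inhibition of human DSH1 cells, measured with a cell viability readout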
Description: SANGER: Inhibition of human DSH1 cell growth in a cell viability assay.

SNU1 = format: functional, cell-based; details: Homo sapiens;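 further: growth inhibition of human NCI-SNU-1 cells, measured with a cell viability assay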
Description: SANGER: Inhibition of human NCI-SNU-1 cell growth in a cell viability assay.

VM-CUB-1 = format: functional, cell-based; details: Homo sapiens;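 further: cell viability assay measuring growth inhibition of the human VM-CUB-1 cell line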
Description: SANGER: Inhibition of human VM-CUB-1 cell growth in a cell viability assay.

MFE-280 = format: functional, cell-based, Homo sapiens; details: Homo sapiens, MFE-280;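 further: growth inhibition of MFE-280 cells, determined with a cell viability readout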
Description: SANGER: Inhibition of human MFE-280 cell growth in a cell viability assay.

SBC-5 = format: functional, cell-based, Homo sapiens; details: Homo sapiens, SBC-5;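 further: cell viability assay read-out, IC50 is the concentration that inhibits growth of the cells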
Description: SANGER: Inhibition of human SBC-5 cell growth in a cell viability assay.

CHP-212 = format: functional, cell-based, Homo sapiens; details: Homo sapiens, CHP-212
Description: SANGER: Inhibition of human CHP-212 cell growth in a cell viability assay.

L-428 = format: functional, cell-based; details: Homo sapiens
Description: SANGER: Inhibition of human L-428 cell growth in a cell viability assay.

JEG-3 = format: functional, cell-based, Homo sapiens; details: Homo sapiens, JEG-3;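 further: growth inhibition of human JEG-3 cells, read out with a cell viability assay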
Description: SANGER: Inhibition of human JEG-3 cell growth in a cell viability assay.

LB2241-RCC = format: functional, cell-based, Homo sapiens; details: Homo sapiens, LB2241-RCC;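 further: cell viability assay measuring how strongly the cultured human renal carcinoma line is prevented from growing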
Description: SANGER: Inhibition of human LB2241-RCC cell growth in a cell viability assay.

SW1573 = format: functional, cell-based, Homo sapiens; details: Homo sapiens, SW1573;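 further: growth inhibition of SW1573 cells, read out with a cell viability assay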
Description: SANGER: Inhibition of human SW1573 cell growth in a cell viability assay.

NCI-H1623 = format: functional, cell-based, Homo sapiens; details: Homo sapiens, NCI-H1623;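 further: cell viability assay used as the read-out for growth inhibition of NCI-H1623 cells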
Description: SANGER: Inhibition of human NCI-H1623 cell growth in a cell viability assay.

SJSA-1 = format: functional, cell-based, Homo sapiens; details: Homo sapiens, SJSA-1;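 further: growth inhibition of human SJSA-1 cells, read out through a cell viability measurement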
Description: SANGER: Inhibition of human SJSA-1 cell growth in a cell viability assay.

LB996-RCC = format: functional, cell-based; details: Homo sapiens
Description: SANGER: Inhibition of human LB996-RCC cell growth in a cell viability assay.

NCI-H226 = format: functional, cell-based, Homo sapiens; details: Homo sapiens, NCI-H226;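 further: cell viability read-out used to gauge growth inhibition of the cells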
Description: SANGER: Inhibition of human NCI-H226 cell growth in a cell viability assay.

SW13 = format: functional, cell-based, Homo sapiens; details: Homo sapiens, SW13;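 further: IC50 is inhibition of SW13 cell growth, read out with a cell viability assay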
Description: SANGER: Inhibition of human SW13 cell growth in a cell viability assay.

KYSE-150 cell line = format: functional, cell-based, Homo sapiens; details: Homo sapiens, KYSE-150;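 further: growth inhibition of human KYSE-150 cells, read out with a cell viability assay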
Description: SANGER: Inhibition of human KYSE-150 cell growth in a cell viability assay.

LOX IMVI = format: functional, cell-based; details: Homo sapiens
Description: SANGER: Inhibition of human LOXIMVI cell growth in a cell viability assay.

M14 = format: functional, cell-based, Homo sapiens; details: Homo sapiens, M14;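 further: growth inhibition of M14 cells, read out with a cell viability assay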
Description: SANGER: Inhibition of human M14 cell growth in a cell viability assay.

CAL-54 = format: functional, cell-based, Homo sapiens; details: Homo sapiens, CAL-54;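 further: growth inhibition of CAL-54 cells, read out by a viability measurement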
Description: SANGER: Inhibition of human CAL-54 cell growth in a cell viability assay.

OVCAR-3 = format: functional, cell-based, Homo sapiens; details: Homo sapiens, OVCAR-3;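 further: growth inhibition of human OVCAR-3 cells, determined by a cell viability assay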
Description: SANGER: Inhibition of human OVCAR-3 cell growth in a cell viability assay.

KM12 = format: functional, cell-based, Homo sapiens; details: Homo sapiens, KM12;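 further: KM12 cell growth inhibition, read out with a cell viability assay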
Description: SANGER: Inhibition of human KM12 cell growth in a cell viability assay.

HN = format: functional, cell-based, Homo sapiens; details: Homo sapiens, HN
Description: SANGER: Inhibition of human HN cell growth in a cell viability assay.

HT-1080 = format: functional, cell-based, Homo sapiens; details: Homo sapiens, HT-1080
Description: SANGER: Inhibition of human HT-1080 cell growth in a cell viability assay.

DMS-114 = format: functional, cell-based, Homo sapiens; details: Homo sapiens, DMS-114
SCH = format: functional, cell-based, Homo sapiens; details: Homo sapiens, SCH;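 further: growth inhibition of human SCH cells, read out in a cell viability assay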
Description: SANGER: Inhibition of human SCH cell growth in a cell viability assay.

Lu-65 = format: functional, cell-based; details: Homo sapiens;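 further: growth inhibition of Lu-65 cancer cells, read out by a cell viability assay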
Description: SANGER: Inhibition of human LU-65 cell growth in a cell viability assay.

TCC-SUP = format: functional, cell-based, Homo sapiens; details: Homo sapiens, TCC-SUP;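 further: growth inhibition of TCC-SUP cells, read out with a cell viability assay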
Description: SANGER: Inhibition of human TCCSUP cell growth in a cell viability assay.

BV-173 = format: functional, cell-based; details: Homo sapiens
Description: SANGER: Inhibition of human BV-173 cell growth in a cell viability assay.

NUGC-3 = format: functional, cell-based, Homo sapiens; details: Homo sapiens, NUGC-3;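 further: growth inhibition of human NUGC-3 cells, read out with a cell viability assay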
Description: SANGER: Inhibition of human NUGC-3 cell growth in a cell viability assay.

no-10 = format: functional, cell-based, Homo sapiens; details: Homo sapiens;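 further: growth inhibition of no-10 cells, read out with a cell viability assay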
Description: SANGER: Inhibition of human no-10 cell growth in a cell viability assay.

SW1990 = format: functional, cell-based, Homo sapiens; details: Homo sapiens, SW1990;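 further: cell growth inhibition determined with a viability assay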
Description: SANGER: Inhibition of human SW1990 cell growth in a cell viability assay.

MDA-MB-157 = format: functional, cell-based, Homo sapiens; details: Homo sapiens, MDA-MB-157
Description: SANGER: Inhibition of human MDA-MB-157 cell growth in a cell viability assay.

MZ2-MEL = format: functional, cell-based, Homo sapiens; details: Homo sapiens, MZ2-MEL;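 further: growth inhibition of MZ2-MEL cells read out with a cell viability assay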
Description: SANGER: Inhibition of human MZ2-MEL cell growth in a cell viability assay.

C32 = format: functional, cell-based, Homo sapiens; details: Homo sapiens, C32;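 further: cell viability assay, with IC50 reflecting inhibition of C32 cell growth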
Description: SANGER: Inhibition of human C32 cell growth in a cell viability assay.

SK-MEL-2 = format: functional, cell-based, Homo sapiens; details: Homo sapiens, SK-MEL-2;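 further: growth inhibition of human SK-MEL-2 cells measured with a cell viability assay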
Description: SANGER: Inhibition of human SK-MEL-2 cell growth in a cell viability assay.

ES7 = format: functional, cell-based, Homo sapiens; details: Homo sapiens, ES7;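 further: growth inhibition of cultured human ES7 cells, read out as cell viability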
Description: SANGER: Inhibition of human ES7 cell growth in a cell viability assay.

ES4 = format: functional, cell-based, Homo sapiens; details: Homo sapiens, ES4;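 further: growth inhibition of human ES4 cells, read out by a cell viability assay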
Description: SANGER: Inhibition of human ES4 cell growth in a cell viability assay.

NCI-H661 = format: functional, cell-based, Homo sapiens; details: Homo sapiens, NCI-H661;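 further: cell viability assay read-out, IC50 being the concentration that inhibits growth of the cells by half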
Description: SANGER: Inhibition of human NCI-H661 cell growth in a cell viability assay.

KALS-1 = format: functional, cell-based, Homo sapiens; details: Homo sapiens, KALS-1;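 further: growth inhibition of KALS-1 cells, determined with a cell viability assay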
Description: SANGER: Inhibition of human KALS-1 cell growth in a cell viability assay.

VMRC-RCZ = format: functional, cell-based; details: Homo sapiens;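 further: growth inhibition measured with a cell viability assay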
Description: SANGER: Inhibition of human VMRC-RCZ cell growth in a cell viability assay.

CHL-1 = format: functional, cell-based, Homo sapiens; details: Homo sapiens, CHL-1;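 further: cell growth inhibition, read out with a cell viability assay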
Description: SANGER: Inhibition of human CHL-1 cell growth in a cell viability assay.

TGW = format: functional, cell-based; details: Homo sapiens;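 further: growth inhibition of human TGW cells, read out with a cell viability assay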
Description: SANGER: Inhibition of human TGW cell growth in a cell viability assay.

RCC10RGB = format: functional, cell-based, Homo sapiens; details: Homo sapiens, RCC10RGB;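 further: growth inhibition of human RCC10RGB cells, read out by a cell viability assay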
Description: SANGER: Inhibition of human RCC10RGB cell growth in a cell viability assay.

no-11 = format: functional, cell-based, Homo sapiens; details: Homo sapiens;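 further: growth inhibition of human NO-11 cells, read out with a cell viability assay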
Description: SANGER: Inhibition of human no-11 cell growth in a cell viability assay.

NCI-H82 = format: functional, cell-based; details: Homo sapiens;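 further: growth inhibition of NCI-H82 cells, measured with a cell viability readout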
Description: SANGER: Inhibition of human NCI-H82 cell growth in a cell viability assay.

HuCCT-1 = format: functional, cell-based, Homo sapiens, HuCCT1; details: Homo sapiens, HuCCT-1;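 further: growth inhibition of HuCCT-1 cells, read out by a cell viability assay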
Description: SANGER: Inhibition of human HuCCT1 cell growth in a cell viability assay.

COc1ccc(-c2ccc3c(N4CCOC[C@@H]4C)nc(N4CCOC[C@@H]4C)nc3n2)cc1CO [AZD-8055]
IC50 (KU812 cell line): 80.4 nM
IC50 (SNB-75): 1750 nM
IC50 (BFTC-909): 1290 nM
IC50 (NCI-H1993): > 2000 nM
IC50 (MHH-PREB-1): 747 nM
IC50 (HCT-116): 1430 nM
IC50 (DSH1): > 2000 nM
IC50 (SNU1): 323 nM
IC50 (VM-CUB-1): 473 nM
IC50 (MFE-280): 430 nM
IC50 (SBC-5): 1550 nM
IC50 (CHP-212): 437 nM
IC50 (L-428): > 2000 nM
IC50 (JEG-3): 1580 nM
IC50 (LB2241-RCC): 302 nM
IC50 (SW1573): 1600 nM
IC50 (NCI-H1623): 763 nM
IC50 (SJSA-1): 446 nM
IC50 (LB996-RCC): > 2000 nM
IC50 (NCI-H226): > 2000 nM
IC50 (SW13): 984 nM
IC50 (KYSE-150 cell line): 662 nM
IC50 (LOX IMVI): 551 nM
IC50 (M14): 472 nM
IC50 (CAL-54): 1830 nM
IC50 (OVCAR-3): > 2000 nM
IC50 (KM12): 1800 nM
IC50 (HN): 1900 nM
IC50 (HT-1080): 525 nM
IC50 (DMS-114): 937 nM
IC50 (SCH): 1030 nM
IC50 (Lu-65): 1260 nM
IC50 (TCC-SUP): 1470 nM
IC50 (BV-173): 90.6 nM
IC50 (NUGC-3): 707 nM
IC50 (no-10): > 2000 nM
IC50 (SW1990): 1480 nM
IC50 (MDA-MB-157): 678 nM
IC50 (MZ2-MEL): 409 nM
IC50 (C32): 725 nM
IC50 (SK-MEL-2): 642 nM
IC50 (ES7): 274 nM
IC50 (ES4): 453 nM
IC50 (NCI-H661): 1450 nM
IC50 (KALS-1): > 2000 nM
IC50 (VMRC-RCZ): 785 nM
IC50 (CHL-1): 327 nM
IC50 (TGW): > 2000 nM
IC50 (RCC10RGB): > 2000 nM
IC50 (no-11): > 2000 nM
IC50 (NCI-H82): > 2000 nM
IC50 (HuCCT-1): > 2000 nM
